Measured values: US5149688A, “Methods, compounds, and compositions for immunosuppression” (priority 1990, dated 1992)
Like-named read-outs stand apart in the source and are kept apart here.

Assays:
lymphocytes [1] = assay: Phytohemagglutinin A (PHA) assay; format: cell-based; settings: Lymphocyte, read-out: concentration giving 50% inhibition, PHA assay
From the text: (§1) The following studies sought to characterize the immunosuppressive activities of ABA, both as to in vitro and in vivo efficacy in experimental systems. It is important to point out that the results obtained from the in vitro systems are generally predictive of the in vivo immunosuppressive properties of the ABA. More specifically, the assays used here are mixed lymphocyte response (MLR) and phytohemagglutinin A (PHA) assays which are valuable for identifying immune suppressive molecules in vitro, and that the results obtained therefrom are generally predictive of their in vivo effectiveness. The assays are further described below.
A second assay widely used to study immune responsiveness is mitogenic stimulation of lymphocytes with mitogenic substances of plant origin. The most widely used plant molecule is PHA.
(§2) Thus, it will be appreciated as to both the mixed lymphocyte and PHA assay that they are valuable for identifying immune suppressive molecules in vitro, and that the results obtained therefrom are generally predictive of their in vivo effectiveness.

lymphocytes [2] = assay: Primary mixed lymphocyte response (MLR) assay; format: cell-based; settings: read-out: concentration giving 50% inhibition, primary MLR assay
From the text: as §1
The in vitro mixed lymphocyte assay is presently employed in the clinical setting as an indicator of histocompatibility, and is premised on the transformation of resting genetically dissimilar lymphocytes into cells which synthesize DNA and undergo proliferation.
as §2

lymphocytes [3] = assay: Secondary mixed lymphocyte reaction (2'-MLR) assay; format: cell-based; settings: read-out: concentration inhibiting 50% of the stimulatory activity, 2'-MLR
From the text: In addition to the above immunosuppressive assays, a secondary mixed lymphocyte reaction assay was applied to ABA. The secondary mixed lymphocyte assays differs from the primary mixed lymphocyte reaction assays in that they employ many more primed responder cells that are responsive to the primary stimulating cells. The presence of such responsive cells is a reflection of immunological memory in an ongoing immunological response. […] Generally between 10% to 50% of the original input cells are recovered in viable condition. These cells are then used in the secondary mixed lymphocyte reaction.
The procedure for carrying out a secondary mixed lymphocyte reaction is described by T. Meoen, Immunological Methods, Eds I. Lefkoivits and B. Pernis, […], New York (1979). It will be appreciated that described therein is a method for carrying out secondary lymphocyte reactions using mouse cells, however such methods are generally applicable to performing secondary mixed lymphocyte reactions using human cells with modifications that are well known to those skilled in the art.

adjuvant arthritis (AA) [4] = tested on: adjuvant arthritis (AA)
[5] = tested on: rheumatoid arthritis (RA); settings: human, in vivo; cited from earlier work
dihydrofolate reductase = settings: cited from earlier work
adjuvant arthritis (AA) [6] = assay: Prophylactic effect of SA on adjuvant arthritis in rats (Example 1); format: in vivo, male Lewis rats
[7] = Plasma levels of SA during CI therapy (HPLC); format: in vivo, male Lewis rats; settings: 400 mg/kg/day CI; for concentration at 216 h: rat, plasma, sc, 400 mg/kg/day
adjuvant arthritis (AA) [8] = assay: Therapeutic effect of SA on AA (Example 2); format: in vivo, rats
Protocol: The following experiments examined the therapeutic effect of SA on the progression of AA. In these studies, the treatments with SA began at day 5 after the rats had been immunized with M.Tb in their left footpads. At this time, the activation of lymphoid cells with M.Tb was well established and the appearance of mononuclear cells at the joint has been reported as the earliest histologic findings. Billingham, 1983, Pharma. Theory, 21: 389.
325 mg/kg/day of SA was administered by subcutaneous pump infusion from day 5 until day 19. The control animals received isotonic and isovolumic NaCl control.
A parallel group of animals were treated with daily intraperitoneal injections of 800 mg/kg/day of SA (FIGS. 6 and 7). This was done to compare the relative efficacy of continuous infusion versus a single daily intraperitoneal injection.

adjuvant arthritis (AA) [9] = assay: Comparative efficacy of MTX and SA in suppressing onset of AA (Example 3); format: in vivo, Lewis rats
Protocol: On the same day, pumps were surgically implanted into the first two groups. The first group received SA at 300 mg/kg/day through the pumps. The second group, which served as the control, received continuous infusion of 2.5M NaCl through the pumps.

[10] = tested on: established adjuvant arthritis (AA); assay: Comparative efficacy of SA and MTX in the treatment of established arthritis (Example 4); format: in vivo, male Lewis rats
Protocol: Three groups of 15 male Lewis rats were injected with M.Tb on day 0 in the left hindpaw. […] On day 16, subcutaneous pumps were placed in the SA and control groups. SA was administered at 300 mg/kg/day by CI. The control group received 2.5M NaCl. […] Treatment was continued to day 30.

adjuvant arthritis (AA) [11] = assay: Long term suppression of AA using combined SA and MTX treatment (Example 6); format: in vivo, male Lewis rats; settings: SA 300 mg/kg/day IP or MTX 0.9 mg/kg/week IP, day 5 to 15
Protocol: On day 0, three groups of 10 male Lewis rats were injected with M.Tb in oil suspension, as in previous examples. […] The animals were evaluated for arthritis development.

[12] = rat, in vivo
Protocol: (§3) Isotonic and isovolumic saline was used as the control in this subcutaneous infusion treatment regimen (hereinafter referred to as SQ, or continuous infusion, CI, regimen). The treatment was started on day -4 prior to M.Tb injection (day 0). The pumps were calculated to infuse until day 10. Ten rats were used in each group.

[13] = tested on: delta-aminolevulinic dehydratase; settings: cited from earlier work
allogeneic tumors = settings: rats; cited from earlier work
[14] = Body weight / toxicity of rats under prophylactic SA treatment; settings: SA level necessary for suppression of AA
Protocol: as §3

adjuvant arthritis (AA) [15] = assay: Therapeutic treatment of AA with SA and/or MTX, summary of set of experiments run in triplicate
Protocol: In the SA and MTX combined treatment regimen, the SA was administered in an amount ranging from 150-300 mg/kg/day. The MTX was administered three times a week in IP injections, at a total of 0.9 mg/kg/week.

[16] = SA 300 mg/kg/day CI, day 16 to 30

SMILES: CC(=O)CC(=O)c1ccccc1C(=O)O [ABA, 2-acetoacetyl benzoic acid]
- IC50 (lymphocytes [1]): 91 ± 60 µM
- IC50 (lymphocytes [2]): 870 ± 280 µM
- IC50 (lymphocytes [3]): ~1600 µM
- footpad swelling at day 19, 4 days after cessation (adjuvant arthritis (AA) [4]; ABA 400 mg/kg/day IP): decreased footpad swelling
- suppression of AA, ABA compared with SA (adjuvant arthritis (AA) [4]; ABA 400 mg/kg/day IP vs SA 800 mg/kg/day IP): ABA is more efficacious than SA in suppressing AA
- footpad swelling, clinical disease scores and incidence of arthritis during administration (adjuvant arthritis (AA) [4]; ABA 400 mg/kg/day IP, FIGS. 14 and 15): AA was suppressed; the footpad swelling, clinical disease scores and incidence of arthritis were all lowered
- Arthritis Incidence (adjuvant arthritis (AA) [4]; ABA 100 in ABA/PEG formulation, day 12): 100%
- Arthritis Incidence (adjuvant arthritis (AA) [4]; ABA 100 in ABA/PEG formulation, day 19): 100%
- suppression of arthritis (adjuvant arthritis (AA) [4]; ABA 200 and 100 mg/kg/day IP): did not show observable suppression of arthritis
- Arthritis Incidence (adjuvant arthritis (AA) [4]; ABA 200 in ABA/PEG formulation, day 12): 100%
- Arthritis Incidence (adjuvant arthritis (AA) [4]; ABA 200 in ABA/PEG formulation, day 19): 100%
- Arthritis Incidence (adjuvant arthritis (AA) [4]; ABA 400 in ABA/PEG formulation, daily IP day 5 to 15, day 12, control 100%): 40%
- Arthritis Incidence (adjuvant arthritis (AA) [4]; ABA 400 in ABA/PEG formulation, day 19 (4 days after cessation)): 100%
- suppression of AA at 400 mg/kg/day, post-immunization regimen (adjuvant arthritis (AA) [4]; ABA given IP): ABA suppressed AA at 400 mg/kg/day when given IP in a post-immunization regimen

SMILES: CC(C)(S)[C@@H](N)C(=O)O [D-penicillamine]
- toxic side effects [5]: causes bone marrow depression and renal toxicity

SMILES: CN(Cc1cnc2nc(N)nc(N)c2n1)c1ccc(C(=O)N[C@@H](CCC(=O)O)C(=O)O)cc1 [MTX, Methotrexate]
- inhibition of dihydrofolate reductase (dihydrofolate reductase): inhibits dihydrofolate reductase

SMILES: CC(=O)CC(=O)CCC(=O)O [SA, Succinylacetone]
- arthritis severity, dose dependence (adjuvant arthritis (AA) [6]; SA 400 and 200 mg/kg/day CI, day -4 to day 10): inhibited arthritis severity in a dose dependent manner
- right footpad swelling and arthritis in non-injected extremities (adjuvant arthritis (AA) [6]; SA 400 and 200 mg/kg/day, SQ ALZET pumps, day -4 to day 10, FIGS. 1 and 2): suppression of clinical arthritis
- histologic arthritis of the joints (adjuvant arthritis (AA) [6]; SA treated cohort, CI): found to suppress histologic arthritis
- concentration ([7]; blood collected on day 9, individual rats SA-C1, SA-C2, SA-C3, 12960 min, 12960 min, read-out: SA Level (plasma)): 50 µM
- concentration at 216 h ([7]; blood collected on day 9, individual rats SA-C1, SA-C2, SA-C3, read-out: SA Level (plasma)): 44 µM
- concentration at 216 h ([7]; day 9, HPLC, read-out: plasma SA levels associated with clinical suppression of arthritis): 40 to 50 µM
- continuous infusion versus daily IP injection (adjuvant arthritis (AA) [8]; 325 mg/kg/day CI vs 800 mg/kg/day IP): continuous infusion results in greater suppression at a lower dose than does daily IP injection
- right hindpaw swelling and clinical severity of arthritis (adjuvant arthritis (AA) [8]; SA 325 mg/kg/day SQ pump infusion, day 5 to 19, FIGS. 4 and 5): Right hindpaw swelling and clinical severity of arthritis was suppressed
- arthritis during treatment (adjuvant arthritis (AA) [8]; SA 325 mg/kg/day continuous infusion): completely suppressed during treatment
- day until which the clinical scores did not increase (adjuvant arthritis (AA) [8]; SA 325 mg/kg/day continuous infusion, day 5 to 19): 36 days
- increase in clinical scores relative to saline treated animals (adjuvant arthritis (AA) [8]; SA 325 mg/kg/day continuous infusion, from day 36): less than half of the saline treated animals
- suppression of AA beyond termination of treatment (adjuvant arthritis (AA) [8]; SA 800 mg/kg/day IP, FIG. 7): did not suppress the AA beyond the termination of the treatment regimen
- day by which groups reached equivalent severity to the controls (adjuvant arthritis (AA) [8]; SA 800 mg/kg/day, daily IP): ≤ 33 days
- footpad swelling after termination of treatment (adjuvant arthritis (AA) [8]; SA 800 mg/kg/day, daily IP): an attenuated increase in footpad swelling was observed, however, the swelling was less than that found in the controls
- footpad swelling during treatment (adjuvant arthritis (AA) [8]; SA 800 mg/kg/day, daily IP, FIG. 6): suppression of footpad swelling until the treatment stopped
- clinical severity of arthritis (adjuvant arthritis (AA) [8]; SA 800 mg/kg/day, daily IP, FIG. 7): delayed the clinical severity of the arthritis
- suppression of arthritis, both regimens (adjuvant arthritis (AA) [8]; continuous infusion and daily IP injections): resulted in suppression of arthritis
- suppression of AA based on disease incidence (adjuvant arthritis (AA) [9]; SA 300 mg/kg/day CI): maximal suppression of AA based on the disease incidence
- footpad swelling, SA compared with MTX (adjuvant arthritis (AA) [9]; SA 300 mg/kg/day CI vs MTX […] and 3 mg/kg/week): trend towards greater inhibition
- incidence of arthritis (adjuvant arthritis (AA) [9]; SA 300 mg/kg/day CI, day 14, FIG. 9): no incidence of arthritis on day 14
- footpad swelling suppression (adjuvant arthritis (AA) [9]; SA 300 mg/kg/day CI, MTX 2.4 and 3 mg/kg/week IP, FIG. 8): significant suppression
- right footpad diameter, progression from day 23 to 63 ([10]; SA 300 mg/kg/day CI or MTX […] IP, day 16 to 30, FIG. 10): did not increase significantly
- persistence of lack of further swelling after cessation of treatment [10, 16]: up to 33 days
- progression / regression of established arthritis [10, 16]: SA prevented progression of AA, but because the disease had already established itself at the onset of treatment, SA did not cause regression of the arthritis
- mean right hindpaw thickness ([10]; day 23, SA 300 mg/kg/day CI or MTX […] IP from day 16, control 321, normal about 170 U): 258 U
- suppression of AA, single drugs IP (adjuvant arthritis (AA) [11]): AA was not suppressed
- body weight [12]: allowed weight gain
- suppression of the disease by SA using this treatment protocol (adjuvant arthritis (AA) [4]; SA 800 mg/kg/day IP): only transient suppression of the disease
- inhibition of delta-aminolevulinic dehydratase [13]: potent inhibitor
- tumorigenicity of allogeneic tumors (allogeneic tumors): enhance tumorigenicity of allogeneic tumors in rats
- toxicity [14]: non-toxic to the animals at the level necessary for suppression of AA
- CI versus IP regimen at suppressing the AA (adjuvant arthritis (AA) [15]; 300 to 400 mg/kg/day CI vs 800 mg/kg/day IP): The CI regimen was more effective than the IP regimen at suppressing the AA
- suppression of AA without death or weight loss (adjuvant arthritis (AA) [15]; SA 300 to 400 mg/kg/day CI or 800 mg/kg/day IP): suppressed AA without causing death or weight loss in the rats
- SA dose at which AA was suppressed without death or weight loss, IP (adjuvant arthritis (AA) [15]; daily intraperitoneal injection): 800 mg/kg/day
